Columns and labels:
S. mansoni adult worms [1] = assay: In vitro assay, S. mansoni adult worms; type: cell-based; conditions: Schistosoma mansoni; S. mansoni adult worms, in vitro; read-out: (a) Adult
[2] = tested on: S. mansoni juvenile worms; assay: In vitro assay, S. mansoni juvenile worms; type: cell-based; conditions: Schistosoma mansoni; S. mansoni juvenile worms, in vitro; read-out: (b) Juvenile
[3] = tested on: S. haemotobium adult worms; assay: In vitro assay, S. haemotobium adult worms; type: cell-based; conditions: read-out: (c) S. haemotobium
Experimental: (§1) The routine biological assays using adult or juvenile worms and cytotoxicity assays using MRC-5 cells have been disclosed previously in Mansour, N. R., et al. (2016). “High Throughput Screening Identifies Novel Lead Compounds with Activity against Larval, Juvenile and Schistosoma mansoni PLoS Negl Trap Dis 10(4): e0004659. Cytotoxicity assays using the HepG2 cell line were carried out as described in Molecular Diversity (2015) 19, 251-261.
(c) S. haemotobium adult worms

MRC-5 cells = assay: Cytotoxicity against human MRC-5 cell line; type: cell-based
Experimental: as §1
(d) Cytotoxicity against human MRC-5 cell line

HepG2 cell line = assay: Cytotoxicity against human HepG2 cell lines; type: cell-based
S. mansoni adult worms [4] = assay: Mouse infection model, adult worms, oral treatment day 42 post infection, worm recovery; type: in vivo, Schistosoma mansoni; conditions: mice
Experimental: (§2) Methods for the subcutaneous infection of mice and subsequent worm recovery were as described in Mansour et al (2016) except that infection was with 150 cercariae and the perfusion medium was citrate saline (0.9% sodium chloride, 1.5% tri-sodium citrate). Perfusion was carried out 8 days (adult infections) or 15 days (juvenile infections) after treatment. Perfuseate was collected into 30 mL universal tubes. RBC (Red Blood Cells) were removed by allowing the perfuseate to settle for 10 min, removal of most of the supernatant and washing once as above with 10 mL perfusion medium. A drop of dilute aqueous saponin solution was added to lyse any remaining RBC and the worm suspension poured into a grid-marked small petri dish. The tube was rinsed out into the petri dish and examined for any remaining worms. Worms were counted using a dissecting microscope. The mouse livers removed after perfusion were squashed between two thick glass plates and examined visually and any remaining worms added to those counted as above.
(§3) For testing efficacy against the juvenile worms, treatment was on day 25 post infection and for testing against the adult worms on day 42 post infection. Drugs were suspended in 7% Tween-80/3% Ethanol/double distilled water and drug dispersal was facilitated by vortexing and using a sonicating water bath (Formulation F1). Alternatively, drugs were suspended in 10% DMSO, 90% double distilled water containing 50 mM Na2HPO4 with 0.5% Tween-80 by first dissolving or suspending the drug in DMSO then adding the DMSO solution/suspension to the aqueous solution (Formulation F2). In a further set of conditions, drugs were first dissolved in DMSO, then diluted with corn oil to give a 5% DMSO+drug solution/suspension (Formulation F3)
(§4) The drug solution/suspensions were given by oral gavage at the rate of 10 ml/kg. Positive controls (artemether for juvenile worms and praziquantel for adult worms) were used in each experiment.

[5] = tested on: S. mansoni juvenile worms; assay: Mouse infection model, juvenile worms, oral treatment day 25 post infection, worm recovery; type: in vivo, Schistosoma mansoni; conditions: mice
Experimental: as §2, §3, §4

[6] = oral 200 mg/kg, Formulation F1, negative control 38.8 ± 5.4
[7] = oral 6.25 mg/kg, Formulation F1, negative control 33.8 ± 4.1
[8] = oral 12.5 mg/kg, Formulation F1, negative control 33.8 ± 4.1
[9] = oral 6.25 mg/kg, Formulation F3, negative control 32.6 ± 10.6
[10] = oral 25 mg/kg, Formulation F1, negative control 33.2 ± 9.09

IC50 (S. mansoni adult worms [1]) [nM] | IC50 [2] [nM] | IC50 [3] [nM] | Compound | (d) Cytotox MRC-5 (MRC-5 cells) [µM] | (e) Cytotox HepG2 (HepG2 cell line) [µM] | further results
58 | 13 | < 195 | COc1ccc(-c2c(C(C)C)nc3cnc(-c4cccc(C(F)(F)F)c4)cn23)cc1O [Example 1, 2-methoxy-5-[2-(propan-2-yl)-6-[3-(trifluoromethyl)phenyl]imidazo[1,2-a]pyrazin-3-yl]phenol] | 21.8 | >11.1 | –
290 | 480 | – | Cc1nc2cnc(-c3cccc(C(F)(F)F)c3)cn2c1-c1ccc(O)cc1F [Example 6, 3-fluoro-4-[2-methyl-6-[3-(trifluoromethyl)phenyl]imidazo[1,2-a]pyrazin-3-yl]phenol] | 15.8 | – | –
90 | 82 | – | CCc1nc2cnc(-c3cccc(C(F)(F)F)c3)cn2c1-c1ccc(OC)c(O)c1 [Example 7, 2-methoxy-5-[2-ethyl-6-[3-(trifluoromethyl)phenyl]imidazo[1,2-a]pyrazin-3-yl]phenol] | >50 | >30 | –
100 | 86 | < 1560 | CCc1nc2cnc(-c3cccc(C(F)(F)F)c3)cn2c1-c1ccc(O)cc1F [Example 8, 3-fluoro-4-[2-ethyl-6-[3-(trifluoromethyl)phenyl]imidazo[1,2-a]pyrazin-3-yl]phenol] | 17.3 | 18.7 | –
76 | 79 | – | CC(C)c1nc2cnc(-c3cccc(C(F)(F)F)c3)cn2c1-c1ccc(O)cc1F [Example 9, 3-fluoro-4-[2-(propan-2-yl)-6-[3-(trifluoromethyl)phenyl]imidazo[1,2-a]pyrazin-3-yl]phenol] | 13.7 | 9 | –
< 780 | 530 | – | Cc1nc2cnc(-c3ccc(F)c(C(F)(F)F)c3)cn2c1-c1ccc(O)cc1F [Example 10, 3-fluoro-4-[2-methyl-6-[4-fluoro-3-(trifluoromethyl)phenyl]imidazo[1,2-a]pyrazin-3-yl]phenol] | 14.4 | >11.1 | –
120 | 220 | 40 | Cc1nc2cnc(-c3ccc(F)c(C(F)(F)F)c3)cn2c1-c1c(F)cc(O)cc1F [Example 16, 3,5-difluoro-4-[2-methyl-6-[4-fluoro-3-(trifluoromethyl)phenyl]imidazo[1,2-a]pyrazin-3-yl]phenol] | – | 7.6 | –
44 | 26 | 23 | CC(C)c1nc2cnc(-c3ccc(F)c(C(F)(F)F)c3)cn2c1-c1c(F)cc(O)cc1F [Example 17, 3,5-difluoro-4-[2-(propan-2-yl)-6-[4-fluoro-3-(trifluoromethyl)phenyl]imidazo[1,2-a]pyrazin-3-yl]phenol] | – | 7.1 | Mean worm recovery (S. mansoni adult worms [4]; [6]): 0.3 ± 0.8; Percent worm reduction (S. mansoni adult worms [4]; [6]): 99%; Mean worm recovery ([5]; oral 50 mg/kg, Formulation F1, negative control 33.0 ± 7.2): 20.6 ± 8.5; Mean worm recovery ([5]; oral 200 mg/kg, Formulation F1, negative control 33.0 ± 7.2): 5.2 ± 3.1
430 | 530 | 150 | COc1cc(-c2c(C(C)C)nc3cnc(-c4cccc(C(F)(F)F)c4)cn23)cc2cn[nH]c12 [Example 22, 7-methoxy-5-{2-(propan-2-yl)-6-[3-trifluoromethylphenyl]imidazo[1,2-a]pyrazin-3-yl}-1H-indazole] | – | – | –
– | 60 | – | Fc1ccc(-c2cn3c(-c4ccc5[nH]ncc5c4F)c(C(F)(F)F)nc3cn2)cc1C(F)(F)F [Example 50, 3-(4-Fluoro-1H-indazol-5-yl)-6-(4-fluoro-3-trifluoromethylphenyl)-2-trifluoromethyl-imidazo[1,2-a]pyrazine] | – | – | Mean worm recovery (S. mansoni adult worms [4]; [7]): 7.4 ± 8.1; Percent worm reduction (S. mansoni adult worms [4]; [7]): 78%; Mean worm recovery (S. mansoni adult worms [4]; [8]): 0.2; Percent worm reduction (S. mansoni adult worms [4]; [8]): 99%; Mean worm recovery [5, 9]: 17.6 ± 12.0; Percent worm reduction [5, 9]: 46%; Mean worm recovery [5, 10]: 0.8 ± 0.84; Percent worm reduction [5, 10]: 98%
11 | 10 | < 6 | Fc1ccc(-c2cn3c(-c4ccc5[nH]ncc5c4F)c(C(F)(F)F)nc3cn2)cc1C(F)(F)C(F)(F)F [Example 63, 3-(4-Fluoro-1H-indazol-5-yl)-6-(4-fluoro-3-pentafluoroethyl-phenyl)-2-trifluoromethyl-imidazo[1,2-a]pyrazine] | – | 11.7 | Mean worm recovery [5, 9]: 0.6 ± 1.0; Percent worm reduction [5, 9]: 98%

— patent US11046700B2, “Substituted imidazo[1,2-a]pyrazines, pyrazolo[1,5-c]pyrimidines, pyrazolo[1,5-a]pyridines, and purines for the treatment of schistosomiasis” (Merck Patent GmbH, priority 2017, dated 2021)
